Measured values: ChEMBL document CHEMBL3769390, “Inhibitors of the Antiapoptotic Myeloid Cell Leukemia-1 (Mcl-1) May Provide Effective Treatment for Cancer” (ACS Med Chem Lett, 2015)

How the values were obtained:
[1] = molecular target: T1, Induced myeloid leukemia cell differentiation protein Mcl-1 (Homo sapiens, UniProt Q07820); test: Inhibition of recombinant Mcl-1 (residues 172-327) (unknown origin) using FITC-AHx-EARIAQELRRIGDEFNETYTR-NH2 as substrate after 90 mins by fluorescence polarization anisotropy competition assay
[2] = Inhibition of Bcl-2 (residues i_207 A96T/G110R, delta 35-91, replaced with Bcl-xL35-50) (unknown origin) using FITC-AHx-GQVGRQLAIIGDDINR-NH2 as substrate after 90 mins by fluorescence polarization anisotropy competition assay; design: species or system Homo sapiens
[3] = Inhibition of Bcl-xL (residues 1-209, loop 45 to 86 deleted) (unknown origin) using FITC-AHx-GQVGRQLAIIGDDINR-NH2 as substrate after 90 mins by fluorescence polarization anisotropy competition assay; design: species or system Homo sapiens
[4] = Antiproliferative activity against human ALMC1 cells after 72 hrs by Cell TiterGlo assay; type: functional, cell-based; conditions: ALMC1, 72 h
[5] = Antiproliferative activity against human ALMC2 cells after 72 hrs by Cell TiterGlo assay; type: functional, cell-based; conditions: ALMC2, 72 h
[6] = Antiproliferative activity against human NCI-H929 cells after 72 hrs by Cell TiterGlo assay; type: functional, cell-based; conditions: NCI-H929, 72 h
K562 = test: Antiproliferative activity against human K562 cells after 72 hrs by Cell TiterGlo assay; type: functional, cell-based; conditions: K562, 72 h
[7] = molecular target: T1, Induced myeloid leukemia cell differentiation protein Mcl-1; test: Inhibition of recombinant Mcl-1 (residues 172-327) (unknown origin) using FITC-AHx-GQVGRQLAIIGDDINR-NH2 as substrate after 90 mins by fluorescence polarization anisotropy competition assay
[8] = Antiproliferative activity against human OPM2 cells after 72 hrs by Cell TiterGlo assay; type: functional, cell-based; conditions: OPM-2, 72 h

T1 sequence (Q07820 whole entry, the tested form may be a part): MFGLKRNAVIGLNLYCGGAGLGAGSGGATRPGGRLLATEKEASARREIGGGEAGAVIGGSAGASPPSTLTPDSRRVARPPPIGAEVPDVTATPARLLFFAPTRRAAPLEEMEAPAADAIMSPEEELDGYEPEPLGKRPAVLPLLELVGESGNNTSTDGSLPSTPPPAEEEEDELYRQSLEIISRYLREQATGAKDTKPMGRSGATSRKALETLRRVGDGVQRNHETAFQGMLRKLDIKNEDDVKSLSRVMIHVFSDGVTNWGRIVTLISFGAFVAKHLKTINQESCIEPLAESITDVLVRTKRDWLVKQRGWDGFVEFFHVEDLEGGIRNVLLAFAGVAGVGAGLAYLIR

Structure (SMILES) | Ki [1] | Ki [2] | Ki [3] | IC50 (K562) | Ki [7] | IC50 [4] | IC50 [5] | IC50 [6] | IC50 [8]
Cc1cc(OCCCc2c3n(c4c(-c5c(C)nn(C)c5C)c(Cl)ccc24)CCCN(c2cccc(C(=O)O)c2)C3=O)cc(C)c1Cl | – | – | 1.9 µM | 23.2 µM | – | 12 µM | 20.8 µM | 6.3 µM | –
Cc1cc(OCCCc2c(C(=O)Nc3ccc(C#N)cc3)[nH]c3c(-c4c(C)nn(C)c4C)c(Cl)ccc23)cc(C)c1Cl | 0.051 µM | – | – | – | – | – | – | – | –
Cc1cc(OCCCc2c3n(c4c(-c5c(C)nn(C)c5C)cccc24)CCN(Cc2cccc(C(=O)O)c2)C3=O)cc(C)c1Cl | < 0.05 µM | 6.44 µM | 2.2 µM | 40 µM | < 0.007 µM | 13.1 µM | 33.9 µM | 15 µM | 16.3 µM

Second part, led by results:

Ki [1] | Ki [2] | Ki [3] | IC50 (K562) | Ki [7] | Structure (SMILES) | IC50 [4] | IC50 [5] | IC50 [6] | IC50 [8]
< 0.05 µM | > 100 µM | 3.54 µM | – | – | Cc1cc(OCCCc2c(C(=O)NCc3cc(C(=O)O)n(C)c3)[nH]c3c(-c4c(C)nn(C)c4C)cccc23)cc(C)c1Cl | – | – | – | –
– | 27 µM | 7.9 µM | – | – | Cc1cc(OCCCc2c(C(=O)NCc3cc(C(=O)O)ccn3)[nH]c3c(-c4c(C)nn(C)c4C)cccc23)cc(C)c1Cl | – | – | – | –
1 µM | – | – | – | – | Cc1cc(OCCCc2c(C(=O)NC(C)(C)C)[nH]c3ccccc23)cc(C)c1Cl | – | – | – | –
